Assay results as given in patent US20160262390A1, “FIELD APPLICATION OF SUGARS TO INCREASE CROP YIELD” (Minn-Dak Farmers Cooperative, priority 2015, published 2016).

What was measured:
corn = experiment: Pre-planting sugar application on corn, Hickson; type: in vivo; details: for Yield / Yield Increase Compared to Check Average: ND
Protocol: (§1) The field trials were conducted simultaneously in two different planting locations for each of the crops. One location was near the community of Foxhome in Wilkin County, Minnesota (hereafter referred to as “Foxhome”) while the second location was near the community of Hickson in Cass County, North Dakota (hereafter referred to as “Hickson”). The Foxhome and Hickson locations are on opposite sides of the Red River along the border of Minnesota and North Dakota and separated by a distance exceeding 40 miles. Generally, the Foxhome location has heavier clay loam soil conditions while Hickson has sandy loam soil conditions.
(§2) At each of the Foxhome and Hickson locations, a total of thirty two (32) treatments were conducted for each crop (sugarbeets, soybeans, corn, wheat). Each treatment was replicated four times arranged in a Randomized Complete Block (RCB) Design in the same field. Each replication consisted of a plot measuring twenty five (25) feet in length and eleven (11) feet in width. In selecting the particular seed types for evaluation, popular commercial varieties to the region were utilized. For the row crops (sugarbeets, soybeans, corn) each replication included a width of six (6) rows with twenty two (22) inch row spacing and having a row length of twenty five (25) feet. The wheat was planted in accordance with standard commercial practices. To reduce/eliminate any treatment impacts between adjacent plots for the crops, only the four (4) interior rows of each plot were treated and evaluated for row crops, while for wheat, only the interior 7.33 feet of each plot were treated and evaluated. With the exception of the treatment program applied to the individual plots, which will be discussed below, conventional commercial growing practices for each planting location were otherwise followed during the field trials. While the individual plots at the same location, Hickson or Foxhome, experienced essentially the same growing conditions throughout the season, there were various differences associated with localized precipitation, general growing conditions, soil classification and the like, which contributed to performance differences between the Hickson and Foxhome locations.
(§3) The treatment regimen at each location for each of the tested crops included two (2) untreated treatments (Treatments 31 and 32) in which no sugar was applied and constitute the control elements. […] Six (6) treatments (Treatments 13-18) included the liquid application of high fructose corn syrup (hereafter “HFCS”) at varying rates. Six treatments (Treatments 19-24) included the liquid application of dextrose (hereafter “LIQDEX”) at varying rates. Six (6) treatments (Treatments 25-30) included the application of powdered cellulose (hereafter “POWCEL”) at varying rates. For the sugar applied in a solid form, granulated or powdered, field application was conducted via conventional broadcast spreading. For the sugar applied in a liquid form, a liquid concentrate was mixed and diluted with water in a tank and a conventional sprayer was configured such that the liquid was sprayed so as to have the same sugar equivalent (measured in pounds/per acre) as the sugar in solid form. Regardless of whether the sugar was applied as a solid or liquid, the sugar was applied directly onto the soil before spring tillage, lightly worked into the ground and followed by planting of the crop seed in the treated ground. A summary of application rates for each plot treatments are contained in Table 7 below and were used consistently with each of the crops (sugarbeets, soybeans, corn, wheat).
To test the impact of pre-planting application rates and sugar source on corn, identical field trials using Peterson Farms brand corn seed were conducted at the Foxhome and Hickson locations. Planting of the corn seed and harvest of the corn were conducted on the same dates so as to have essentially the same growing season. […]

wheat [1] = experiment: Pre-planting sugar application on wheat, Hickson; type: in vivo; details: for Yield / Yield Increase Compared to Check: ND
Protocol: as §1, §2, §3
(§4) To test the impact of pre-planting application rates and sugar source on wheat, identical field trials using Westbred Mayville wheat seed were conducted at the Foxhome and Hickson locations. Planting of the wheat seed and harvest of the wheat were conducted on the same dates so as to have essentially the same growing season. […]

soybeans [2] = experiment: Pre-planting sugar application on soybeans, Foxhome; type: in vivo, soybean; details: for Yield / Yield Increase Compared to Check: MN
Protocol: as §1, §2, §3
(§5) To test the impact of pre-planting application rates and sugar source on soybeans, identical field trials using Syngenta brand soybean seed were conducted at the Foxhome and Hickson locations. Planting of the soybean seed and harvest of the soybeans were conducted on approximately the same dates so as to have essentially the same growing season. […]

soybeans [3] = experiment: Pre-planting sugar application on soybeans, Hickson; type: in vivo, soybean; details: for Yield / Yield Increase Compared to Check Average: ND
Protocol: as §1, §2, §3, §5

wheat [4] = experiment: Pre-planting sugar application on wheat, Foxhome; type: in vivo; details: for Yield / Yield Increase Compared to Check Average: MN
Protocol: as §1, §2, §3, §4

[5] = system: microflora that are present in the soil; experiment: Solvita Soil CO2-Burst test of pre-emergent soil samples, soybean trial in Hickson
Protocol: In an attempt to quantify this boost, soil samples were taken during some of the previously discussed trials. These samples were tested using a standard Solvita Soil CO2-Burst Test Kit to generate measurements associated with CO2 respiration which can be used as an indicator of active soil carbon, soil microbial biomass and the potential for nutrient release beneficial to crop production. Generally, the higher the measured levels of CO2, the more advantageous the soil is for crop production.
The results of the CO2-Burst Testing are summarized in Table 17 below (using the replication designations from Table 7): […]

[6] = six rates (25-250 pounds/Acre) per sugar, thirty in all

Q: Which Yield (corn; pre-planting 25 pounds/Acre) does the source give for `OC[C@H]1O[C@@](CO)(O[C@H]2O[C@H](CO)[C@@H](O)[C@H](O)[C@H]2O)[C@@H](O)[C@@H]1O` [GS, sucrose] here?
A: Its Yield is 188.56 Bushels/Acre.

Q: What about the “Yield Increase Compared to Check Average” value (corn; pre-planting 25 pounds/Acre) of the same compound?
A: The value was 22.03%.

Q: And the Yield (corn; pre-planting 50 pounds/Acre)?
A: Its Yield is 153.24 Bushels/Acre.

Q: And the “Yield Increase Compared to Check Average” value (corn; pre-planting 50 pounds/Acre)?
A: Its value is −0.83%.

Q: And the Yield (corn; pre-planting 100 pounds/Acre)?
A: The Yield was 165.78 Bushels/Acre.

Q: And the “Yield Increase Compared to Check Average” value (corn; pre-planting 100 pounds/Acre)?
A: The value was 7.29%.

Q: And the Yield (corn; pre-planting 150 pounds/Acre)?
A: Its Yield is 161.20 Bushels/Acre.

Q: What about the “Yield Increase Compared to Check Average” value (corn; pre-planting 150 pounds/Acre) of the same compound?
A: Its value is 4.32%.

Q: And the Yield (corn; pre-planting 200 pounds/Acre)?
A: The Yield was 163.58 Bushels/Acre.

Q: And the “Yield Increase Compared to Check Average” value (corn; pre-planting 200 pounds/Acre)?
A: The value was 5.86%.

Q: What about the Yield (corn; pre-planting 250 pounds/Acre) of the same compound?
A: Its Yield is 156.06 Bushels/Acre.

Q: What about the “Yield Increase Compared to Check Average” value (corn; pre-planting 250 pounds/Acre) of the same compound?
A: Its value is 1.00%.

Q: What about the “number of treatments showing yield improvement compared to check average” value (“number … compared to check average” below) (corn; [6]) of the same compound?
A: Its value is “five of the six”.

Q: And the Yield (wheat [1]; pre-planting 25 pounds/Acre)?
A: The Yield was 51.82 Bushels/Acre.

Q: What about the “Yield Increase Compared to Check” value (wheat [1]; pre-planting 25 pounds/Acre) of the same compound?
A: Its value is 5.45%.

Q: And the Yield (wheat [1]; pre-planting 50 pounds/Acre)?
A: The Yield was 52.47 Bushels/Acre.

Q: And the “Yield Increase Compared to Check” value (wheat [1]; pre-planting 50 pounds/Acre)?
A: Its value is 6.78%.

Q: And the Yield (wheat [1]; pre-planting 100 pounds/Acre)?
A: Its Yield is 49.94 Bushels/Acre.

Q: What about the “Yield Increase Compared to Check” value (wheat [1]; pre-planting 100 pounds/Acre) of the same compound?
A: The value was 1.63%.

Q: What about the Yield (wheat [1]; pre-planting 150 pounds/Acre) of the same compound?
A: The Yield was 44.54 Bushels/Acre.

Q: What about the “Yield Increase Compared to Check” value (wheat [1]; pre-planting 150 pounds/Acre) of the same compound?
A: The value was −9.36%.

Q: And the Yield (wheat [1]; pre-planting 200 pounds/Acre)?
A: The Yield was 50.25 Bushels/Acre.

Q: And the “Yield Increase Compared to Check” value (wheat [1]; pre-planting 200 pounds/Acre)?
A: The value was 2.26%.

Q: What about the Yield (wheat [1]; pre-planting 250 pounds/Acre) of the same compound?
A: The Yield was 50.40 Bushels/Acre.

Q: What about the “Yield Increase Compared to Check” value (wheat [1]; pre-planting 250 pounds/Acre) of the same compound?
A: Its value is 2.56%.

Q: What about the “number … compared to check average” value (wheat [1]; [6]) of the same compound?
A: Its value is “five of the six”.

Q: What about the Yield (soybeans [2]; pre-planting 25 pounds/Acre) of the same compound?
A: The Yield was 70.03 Bushels/Acre.

Q: What about the “Yield Increase Compared to Check” value (soybeans [2]; pre-planting 25 pounds/Acre) of the same compound?
A: The value was 2.17%.

Q: And the Yield (soybeans [2]; pre-planting 50 pounds/Acre)?
A: Its Yield is 70.87 Bushels/Acre.

Q: And the “Yield Increase Compared to Check” value (soybeans [2]; pre-planting 50 pounds/Acre)?
A: The value was 3.40%.

Q: What about the Yield (soybeans [2]; pre-planting 100 pounds/Acre) of the same compound?
A: The Yield was 70.78 Bushels/Acre.

Q: And the “Yield Increase Compared to Check” value (soybeans [2]; pre-planting 100 pounds/Acre)?
A: The value was 3.27%.

Q: What about the Yield (soybeans [2]; pre-planting 150 pounds/Acre) of the same compound?
A: The Yield was 71.45 Bushels/Acre.

Q: And the “Yield Increase Compared to Check” value (soybeans [2]; pre-planting 150 pounds/Acre)?
A: The value was 4.25%.

Q: What about the Yield (soybeans [2]; pre-planting 200 pounds/Acre) of the same compound?
A: The Yield was 67.22 Bushels/Acre.

Q: And the “Yield Increase Compared to Check” value (soybeans [2]; pre-planting 200 pounds/Acre)?
A: The value was −1.93%.

Q: What about the Yield (soybeans [2]; pre-planting 250 pounds/Acre) of the same compound?
A: The Yield was 66.99 Bushels/Acre.

Q: And the “Yield Increase Compared to Check” value (soybeans [2]; pre-planting 250 pounds/Acre)?
A: The value was −2.26%.

Q: And the “number of treatments showing yield improvement compared to check treatment 31” value (soybeans [2]; [6])?
A: Its value is “four of the six”.

Q: And the Yield (soybeans [3]; pre-planting 25 pounds/Acre)?
A: Its Yield is 62.54 Bushels/Acre.

Q: And the “Yield Increase Compared to Check Average” value (soybeans [3]; pre-planting 25 pounds/Acre)?
A: Its value is 1.28%.

Q: And the Yield (soybeans [3]; pre-planting 50 pounds/Acre)?
A: Its Yield is 63.6 Bushels/Acre.

Q: And the “Yield Increase Compared to Check Average” value (soybeans [3]; pre-planting 50 pounds/Acre)?
A: Its value is 3.00%.

Q: What about the Yield (soybeans [3]; pre-planting 100 pounds/Acre) of the same compound?
A: The Yield was 62.06 Bushels/Acre.

Q: What about the “Yield Increase Compared to Check Average” value (soybeans [3]; pre-planting 100 pounds/Acre) of the same compound?
A: Its value is 0.50%.

Q: What about the Yield (soybeans [3]; pre-planting 150 pounds/Acre) of the same compound?
A: Its Yield is 64.21 Bushels/Acre.

Q: What about the “Yield Increase Compared to Check Average” value (soybeans [3]; pre-planting 150 pounds/Acre) of the same compound?
A: The value was 3.98%.

Q: What about the Yield (soybeans [3]; pre-planting 200 pounds/Acre) of the same compound?
A: Its Yield is 62.15 Bushels/Acre.

Q: And the “Yield Increase Compared to Check Average” value (soybeans [3]; pre-planting 200 pounds/Acre)?
A: The value was 0.65%.

Q: And the Yield (soybeans [3]; pre-planting 250 pounds/Acre)?
A: The Yield was 61.12 Bushels/Acre.

Q: And the “Yield Increase Compared to Check Average” value (soybeans [3]; pre-planting 250 pounds/Acre)?
A: The value was −1.02%.

Q: And the “number … compared to check average” value (soybeans [3]; [6])?
A: Its value is “five of the six”.

Q: What about the Yield (wheat [4]; pre-planting 25 pounds/Acre) of the same compound?
A: Its Yield is 73.58 Bushels/Acre.

Q: And the “Yield Increase Compared to Check Average” value (wheat [4]; pre-planting 25 pounds/Acre)?
A: Its value is 13.55%.

Q: And the Yield (wheat [4]; pre-planting 50 pounds/Acre)?
A: The Yield was 70.01 Bushels/Acre.

Q: What about the “Yield Increase Compared to Check Average” value (wheat [4]; pre-planting 50 pounds/Acre) of the same compound?
A: Its value is 8.04%.

Q: What about the Yield (wheat [4]; pre-planting 100 pounds/Acre) of the same compound?
A: The Yield was 59.45 Bushels/Acre.

Q: And the “Yield Increase Compared to Check Average” value (wheat [4]; pre-planting 100 pounds/Acre)?
A: The value was −8.26%.

Q: And the Yield (wheat [4]; pre-planting 150 pounds/Acre)?
A: The Yield was 66.65 Bushels/Acre.

Q: And the “Yield Increase Compared to Check Average” value (wheat [4]; pre-planting 150 pounds/Acre)?
A: Its value is 2.85%.

Q: And the Yield (wheat [4]; pre-planting 200 pounds/Acre)?
A: Its Yield is 59.64 Bushels/Acre.

Q: What about the “Yield Increase Compared to Check Average” value (wheat [4]; pre-planting 200 pounds/Acre) of the same compound?
A: Its value is −7.96%.

Q: What about the Yield (wheat [4]; pre-planting 250 pounds/Acre) of the same compound?
A: Its Yield is 59.73 Bushels/Acre.

Q: And the “Yield Increase Compared to Check Average” value (wheat [4]; pre-planting 250 pounds/Acre)?
A: Its value is −7.82%.

Q: What about the “number … compared to check average” value (wheat [4]; [6]) of the same compound?
A: Its value is “three of the six”.

Q: What about the “CO2 Burst ppm” value ([5]; sugar amount 50 pounds/acre) of the same compound?
A: Its value is 63 ppm.

Q: What about the “CO2 Increase as Compared to Check Average” value (shortened to “CO2 Increase”) ([5]; sugar amount 50 pounds/acre) of the same compound?
A: The value was 38.46%.

Q: What about the “CO2 Burst ppm” value ([5]; sugar amount 150 pounds/acre) of the same compound?
A: Its value is 75 ppm.

Q: What about the “CO2 Increase” value ([5]; sugar amount 150 pounds/acre) of the same compound?
A: The value was 64.84%.

Q: And the “CO2 Burst ppm” value ([5]; sugar amount 250 pounds/acre)?
A: The value was 53 ppm.

Q: What about the “CO2 Increase” value ([5]; sugar amount 250 pounds/acre) of the same compound?
A: Its value is 16.48%.
